The target in test [1] is T1, CETP (Homo sapiens, UniProt P11597).
T1 construct: CETP is obtained in partially purified form from human plasma by differential centrifugation and column chromatography and used for the test; from tissue; host or cells: human plasma
T1 sequence (P11597 18-493): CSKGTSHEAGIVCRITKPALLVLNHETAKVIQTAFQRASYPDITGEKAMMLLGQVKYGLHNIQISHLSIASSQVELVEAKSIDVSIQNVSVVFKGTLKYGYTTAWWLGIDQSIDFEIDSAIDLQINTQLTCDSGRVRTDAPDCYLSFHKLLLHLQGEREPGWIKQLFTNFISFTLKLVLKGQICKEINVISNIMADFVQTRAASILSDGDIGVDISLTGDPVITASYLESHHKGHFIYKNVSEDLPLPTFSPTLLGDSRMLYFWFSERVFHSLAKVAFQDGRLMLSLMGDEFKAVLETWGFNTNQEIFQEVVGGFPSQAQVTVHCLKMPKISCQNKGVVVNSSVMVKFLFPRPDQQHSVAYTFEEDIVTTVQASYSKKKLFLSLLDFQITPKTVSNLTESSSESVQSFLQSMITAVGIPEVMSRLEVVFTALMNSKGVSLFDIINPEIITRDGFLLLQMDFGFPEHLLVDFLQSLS
Description: CETP fluorescence test with enriched CETP. It counts as biochemical. As to conditions: enriched CETP fraction from human plasma; transfer of fluorescent cholesterol ester between liposomes; 37° C. for 4 h. As to the method: (§1) CETP is obtained in partially purified form from human plasma by differential centrifugation and column chromatography and used for the test. To this end, human plasma is adjusted to a density of 1.21 g per ml using NaBr and centrifuged at 4° C. at 50 000 rpm for 18 h. The bottom fraction (d>1.21 g/ml) is applied to a Phenyl-Sepharose 26/10 HP fast flow-column (Pharmacia), washed with PBS buffer and then eluted with distilled water. 10 parts of PBS buffer and 1% (w/v) BSA are added to the eluate. The CETP-active fractions are pooled.
Measurement of the CETP-catalyzed transfer of a fluorescent cholesterol ester between liposomes [modified according to the procedure of Bisgaier et al., J. Lipid Res. 34, 1625 (1993)]:
For the production of the donor liposomes, 1 mg of cholesteryl 4,4-difluoro-5,7-dimethyl-4-bora-3a,4a-diaza-s-indacene-3-dodecanoate (cholesteryl BODIPY® FL C12, Molecular Probes) is dissolved in 2 ml of chloroform with 5.35 mg of triolein and 6.67 mg of phosphatidylcholine. The solvent is removed at medium temperature in a SpeedVac and the residue is dried under high vacuum for 1 h. The residue is then dissolved in 600 μl of dioxane with gentle warming in an ultrasonic bath and this solution is added very slowly with ultrasonication to 63 ml of 50 mM Tris/HCl, 150 mM NaCl, 2 mM EDTA buffer pH 7.3 at room temperature. The suspension is then ultrasonicated under an N2 atmosphere for 30 minutes in the Branson ultrasonic bath at about 50 watts, the temperature being kept at about 20° C.
The acceptor liposomes are obtained analogously from 86 mg of cholesteryl oleate, 20 mg of triolein and 100 mg of phosphatidylcholine dissolved in 1.2 ml of dioxane and 114 ml of the above buffer by ultrasonication at 50 watts (20° C.) for 30 minutes.
For testing, a test mix consisting of 1 part of above buffer, 1 part of donor liposomes and 2 parts of acceptor liposomes is used.
50 μl of test mix are treated with 48 μl of enriched CETP fraction (1-3 μg), obtained from human plasma by means of hydrophobic chromatography, and 2 μl of a solution of the substance to be investigated in DMSO and incubated at 37° C. for 4 h.
The change in the fluorescence at 485/535 nm is a measure of the CE transfer; the inhibition of the transfer in comparison to the control batch without substance is determined.

The target in test [2] is T1, CETP. Description: CETP-SPA test. It counts as biochemical. Conditions: transfer of 3H-cholesterol ester from human HDL to biotinylated LDL; 37° C. for 18 h. As to the method: as §1
For testing of the CETP activity, the transfer of ^3H-cholesterol ester from human HD lipoproteins to biotinylated LD lipoproteins is measured. The reaction is ended by addition of streptavidin-SPA® beads (Amersham) and the transferred radioactivity is determined directly in a liquid scintillation counter.
In the test batch, 10 μl of HDL-3H-cholesterol ester (about 50 000 cpm) are incubated at 37° C. for 18 h with 10 μl of biotin-LDL (Amersham) in 50 mM Hepes/0.15 M NaCl/0.1% bovine serum albumin (RSA)/0.05% NaN3 pH 7.4 containing 10 μl of CETP (1 mg/ml) and 3 μl of a solution of the substance to be tested (dissolved in 10% DMSO/1% RSA). 200 μl of the SPA-streptavidin bead solution (TRKQ 7005) are then added, incubated further with shaking for 1 h and then measured in a scintillation counter. Corresponding incubations with 10 μl of buffer, 10 μl of CETP at 4° C. and 10 μl of CETP at 37° C. serve as controls.
The activity transferred in the control batches with CETP at 37° C. is rated as 100% transfer. The substance concentration at which this transfer is reduced to half is specified as the IC50 value.

What is called IC50 is the concentration at which inhibition is half-maximal. Higher therefore signals weaker potency. In turn, `O[C@H]1CC2(CCC2)Oc2cc(C3CCCC3)c(C(F)c3ccc(OC(F)(F)F)cc3)c(-c3ccc(F)cc3)c21` (some centres unmarked) [Example 54] had an IC50 at CETP [1] of 39 nM.

Consider `CC(C)c1cc2c(c(-c3ccc(F)cc3)c1C(=O)c1ccc(OC(F)(F)F)cc1)[C@@H](O)CC1(CCC1)O2` [Example 37, [(4S)-5-(4-Fluorophenyl)-4-hydroxy-7-isopropyl-3,4-dihydrospiro[chromen-2,1′-cyclobutan]-6-yl]-[4-(trifluoromethoxy)phenyl]methanone], for which the IC50 against CETP [1] stood at 36 nM; against CETP [2], 30 nM.

As to `CC(C)c1cc2c(c(C3CCCC3)c1Cc1ccc(C(F)(F)F)cc1)[C@@H](O)CC(C)(C)O2` [Example 26, (4S)-5-Cyclopentyl-7-isopropyl-2,2-dimethyl-6-[4-(trifluoromethyl)benzyl]chroman-4-ol], the IC50 against CETP [1] was determined as 48 nM.

Take `CC(C)c1cc2c(c(-c3ccc(F)cc3)c1C(=O)c1ccc(OC(F)(F)F)cc1)[C@@H](O)CC(C)(C)O2` [Example 10, [(4S)-5-(4-Fluorophenyl)-4-hydroxy-7-isopropyl-2,2-dimethyl-3,4-dihydro-2H-chromen-6-yl][4-(trifluoromethoxy)phenyl]methanone]: at CETP [1], the IC50 came to 93 nM.

Turning to `CC(C)c1cc2c(c(C3CCCC3)c1[C@@H](O)c1ccc(C(F)(F)F)cc1)[C@@H](O)CC(C)(C)O2` [Example 24, (4S)-5-Cyclopent-1-yl-6-{(S)-hydroxy[4-(trifluoromethyl)phenyl]methyl}-7-isopropyl-2,2-dimethylchroman-4-ol], the IC50 on CETP [1] was 30 nM; against CETP [2] it was 16 nM.

In the case of `CC(C)c1cc2c(c(-c3ccc(F)cc3)c1C(=O)c1ccc(C(F)(F)F)cc1)[C@@H](O)CC1(CCC1)O2` [Example 27, [(4S)-5-(4-Fluorophenyl)-4-hydroxy-7-isopropyl-3,4-dihydrospiro[chromen-2,1′-cyclobutan]-6-yl]-[4-(trifluoromethyl)phenyl]methanone], the IC50 at CETP [1] stood at 35 nM; against CETP [2], 18 nM.

Regarding `CC(C)c1cc2c(c(-c3ccc(F)cc3)c1[C@@H](O)c1ccc(C(F)(F)F)cc1)[C@@H](O)CC(C)(C)O2` [Example 5, (4S)-5-(4-Fluorophenyl)-6-{(S)-hydroxy[4-(trifluoromethyl)phenyl]methyl}-7-isopropyl-2,2-di-methylchroman-4-ol], the results for the IC50 against CETP [1] and at CETP [2] were 35 nM and 29 nM, respectively.

For the molecule `CC(C)(C)c1ccc(Cc2c(C3CCCC3)cc3c(c2-c2ccc(F)cc2)[C@@H](O)CC2(CCC2)O3)cc1` [Example 50], the IC50 on CETP [1] came to 30 nM; at CETP [2], 15 nM.

As for `CC(C)c1cc2c(c(-c3ccc(F)cc3)c1C(=O)c1ccc(C(C)(C)C)cc1)[C@@H](O)CC1(CCC1)O2` [Example 33, (4-tert-Butylphenyl)[(4S)-5-(4-fluorophenyl)-4-hydroxy-7-isopropyl-3,4-dihydrospiro[chromen-2,1′-cyclobutan]-6-yl]methanone], the IC50 against CETP [1] is 59 nM; against CETP [2] it was 16 nM.

Turning to `CC(C)c1cc2c(c(-c3ccc(F)cc3)c1[C@@H](O)c1ccc(C(F)(F)F)cc1)[C@@H](O)CC1(CC1)O2` [Example 55], the IC50 on CETP [1] came to 27 nM; on CETP [2] it was 4 nM.

For `CC(C)c1cc2c(c(-c3ccc(F)cc3)c1[C@@H](O)c1ccc(OC(F)(F)F)cc1)[C@@H](O)CC(C)(C)O2` [Example 11, (4S)-5-(4-Fluorophenyl)-6-{(S)-hydroxy[4-(trifluoromethoxy)phenyl]methyl}-7-isopropyl-2,2-di-methylchroman-4-ol], the IC50 is 63 nM at CETP [1] and 51 nM against CETP [2].

For the molecule `CC(C)c1cc2c(c(-c3ccc(F)cc3)c1[C@H](F)c1ccc(C(F)(F)F)cc1)[C@@H](O)CC(C)(C)O2` [Example 8, (4S)-5-(4-fluorophenyl)-6-{(R)-fluoro[4-(trifluoromethyl)phenyl]methyl}-7-isopropyl-2,2-dimethylchroman-4-ol], the IC50 against CETP [1] came to 373 nM.

As for `CC(C)c1cc2c(c(-c3ccc(F)cc3)c1[C@@H](O)c1ccc(C(C)(C)C)cc1)[C@@H](O)CC(C)(C)O2` [Example 15, (4S)-6-[(S)-(4-tert-Butylphenyl)(hydroxy)methyl]-5-(4-fluorophenyl)-7-isopropyl-2,2-dimethyl-chroman-4-ol], the IC50 against CETP [1] came to 38 nM.

On CETP [1], `CC(C)c1cc2c(c(-c3ccc(F)cc3)c1C(F)c1ccc(OC(F)(F)F)cc1)[C@@H](O)CC1(CCC1)O2` (mixture of isomers) [Example 40, (4S)-5-(4-Fluorophenyl)-6-{fluoro[4-(trifluoromethoxy)phenyl]methyl}-7-isopropyl-3,4-dihydrospiro[chromen-2,1′-cyclobutan]-4-ol] came in with an IC50 of 50 nM.

On to `CC(C)(C)c1ccc([C@@H](O)c2c(C3CCCC3)cc3c(c2-c2ccc(F)cc2)[C@@H](O)CC2(CCC2)O3)cc1` [Example 49], for which 400 nM corresponded to half-maximal inhibition against CETP [2] (IC50).

Turning to `CC(C)c1cc2c(c(-c3ccc(F)cc3)c1Cc1ccc(C(C)(C)C)cc1)[C@@H](O)CC(C)(C)O2` [Example 17, (4S)-6-(4-tert-Butylbenzyl)-5-(4-fluorophenyl)-7-isopropyl-2,2-dimethylchroman-4-ol], the half-maximal inhibitory concentration (IC50) at CETP [1] stood at 70 nM.

Molecule `CC1(C)C[C@H](O)c2c(cc(C3CCCC3)c([C@@H](O)c3ccc(C(F)(F)F)cc3)c2-c2ccc(F)cc2)O1` [Example 1, (4S)-7-Cyclopentyl-5-(4-fluorophenyl)-6-{(S)-hydroxy[4-(trifluoromethyl)phenyl]methyl}-2,2-dimethylchroman-4-ol] had an IC50 against CETP [1] of 340 nM. Against the preceding molecule, the IC50 is about 4.9-fold higher.

`CC(C)c1cc2c(c(-c3ccccc3)c1C(=O)c1ccc(OC(F)(F)F)cc1)[C@@H](O)CC(C)(C)O2` [Example 18, [(4S)-4-Hydroxy-7-isopropyl-2,2-dimethyl-5-phenyl-3,4-dihydro-2H-chromen-6-yl][4-(trifluoromethoxy)phenyl]methanone] had an IC50 against CETP [1] of 792 nM.

Turning to `CC(C)c1cc2c(c(-c3ccc(F)cc3)c1[C@H](O)c1ccc(C(F)(F)F)cc1)[C@@H](O)CC1(CC1)O2` [Example 56], the IC50 against CETP [1] turned out to be 263 nM.

As to `CC(C)c1cc2c(c(-c3ccc(F)cc3)c1C(=O)c1ccc(C(C)(C)C)cc1)[C@@H](O)CC(C)(C)O2` [Example 14, (4-tert-Butylphenyl)[(4S)-5-(4-fluorophenyl)-4-hydroxy-7-isopropyl-2,2-dimethyl-3,4-dihydro-2H-chromen-6-yl]methanone], the IC50 against CETP [1] stood at 176 nM.

Turning to `CC(C)c1cc2c(c(C3=CCCCC3)c1[C@@H](O)c1ccc(C(F)(F)F)cc1)[C@@H](O)CC(C)(C)O2` [Example 20, (4S)-5-Cyclohex-1-en-1-yl-6-{(S)-hydroxy[4-(trifluoromethyl)phenyl]methyl}-7-isopropyl-2,2-di-methylchroman-4-ol], half-maximal inhibition at CETP [1] (IC50) was put at 49 nM.

These data come from US8227511B2, “Substituted chromanol derivatives and their use” (Bayer Intellectual Property GmbH, priority 2006, dated 2012).
